PubChem BioAssay (NCI)
Where “and” joins values, the source holds several entries; their conditions need not be identical. Identical values can stand only once.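 Compound exposure: 48 hours, 5 concentrations, 96-well plates. The concentration for 50% growth inhibition is given as GI50. TGI: concentration producing complete growth inhibition.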

What was measured:
Assay in all cases: DTP human tumour cell line panel, 48 h
SK-MEL-5 melanoma = test system: SK-MEL-5 melanoma
HS 578T breast = test system: HS 578T breast
SNB-75 CNS = test system: SNB-75 CNS
OVCAR-4 ovarian = test system: OVCAR-4 ovarian
DU-145 prostate = test system: DU-145 prostate
UO-31 renal = test system: UO-31 renal
TK-10 renal = test system: TK-10 renal
RXF 393 renal = test system: RXF 393 renal
IGROV1 ovarian = test system: IGROV1 ovarian
HCC-2998 colon = test system: HCC-2998 colon

| SMILES | GI50 (SK-MEL-5 melanoma) | TGI (SK-MEL-5 melanoma) | GI50 (HS 578T breast) | TGI (HS 578T breast) | GI50 (SNB-75 CNS) | TGI (SNB-75 CNS) | GI50 (OVCAR-4 ovarian) | TGI (OVCAR-4 ovarian) | GI50 (DU-145 prostate) | TGI (DU-145 prostate) | GI50 (UO-31 renal) | TGI (UO-31 renal) | GI50 (TK-10 renal) | TGI (TK-10 renal) | GI50 (RXF 393 renal) | TGI (RXF 393 renal) | GI50 (IGROV1 ovarian) | TGI (IGROV1 ovarian) | GI50 (HCC-2998 colon) | TGI (HCC-2998 colon) |
| --- | --- | --- | --- | --- | --- | --- | --- | --- | --- | --- | --- | --- | --- | --- | --- | --- | --- | --- | --- | --- |
| CCCN1CCCC(c2ccc(Nc3nc(Nc4cc(F)ccc4C(N)=O)c4cc[nH]c4n3)c(OC)c2)C1 (stereo not drawn) | 3.03 µM | 6.24 µM | 3.41 µM | 12.3 µM | 3.14 µM | 6.43 µM | 3.03 µM | 6.13 µM | 0.802 µM | 4.74 µM | 1.27 µM | 5.88 µM | 0.622 µM | 4.39 µM | 0.942 µM | 4.48 µM | 1.47 µM | 6.12 µM | 2.58 µM | 5.64 µM |
| N#CCC1CCN(c2nc(Nc3ccc(N4CCC(O)CC4)cc3)c3c(=O)[nH]ncc3n2)CC1 | > 100 µM | > 100 µM | 0.22 µM | 1.23 µM | 0.337 µM | 2.43 µM | > 58.1 µM | > 100 µM | 0.547 µM | > 100 µM | 0.259 µM | 4.67 µM | 0.306 µM | > 100 µM | 0.303 µM | 1.3 µM | 0.266 µM | 2.95 µM | 1.71 µM | > 100 µM |
| CC1(C)CCC(c2ccc(Cl)cc2)=C(CN2CCN(c3ccc(C(=O)NS(=O)(=O)c4ccc(N[C@H](CCN5CCOCC5)CSc5ccccc5)c(S(=O)(=O)C(F)(F)F)c4)cc3)CC2)C1 | 1.57 µM | 2.93 µM | 2.66 µM | > 24.5 µM | 2.05 µM | 4.16 µM | 1.22 µM | 2.52 µM | 2.76 µM | 7.12 µM | 1.74 µM | 3.21 µM | 1.28 µM | 2.67 µM | 0.322 µM | 1.94 µM | 2.37 µM | 5.25 µM | 0.343 µM | 1.67 µM |
| CCCCCCCCCCCCNC(=O)N[C@H](C(=O)N[C@H]1/C=C/OCCNC(=O)/C=C/[C@H](C(C)C)NC1=O)C(C)C | 2.03 µM | 14.8 µM | 3.22 µM | 38.1 µM | 4.31 µM | > 100 µM | 3.61 µM | > 100 µM | 14 µM | > 100 µM | > 100 µM | > 100 µM | 10.3 µM | > 76.4 µM | 3.65 µM | 28.2 µM | 2.12 µM | > 100 µM | 12.9 µM | > 60.1 µM |
| Fc1cnccc1-c1nc2ccc3[nH]ncc3c2c2c1CCCC2 | 2.35 µM | > 100 µM | 0.661 µM | 6.7 µM | 1.41 µM | 5.54 µM | 3.5 µM | > 100 µM | 1.67 µM | 43.3 µM | 1.91 µM | 8.04 µM | 0.605 µM | > 100 µM | 0.612 µM | 3.29 µM | 0.688 µM | 11.2 µM | 3.2 µM | > 100 µM |
| C/C=C/C(C/C=C(\C)CO[Si](C)(C)C(C)(C)C)O[Si](C)(C)C(C)(C)C (stereo not drawn) |  | > 100 µM |  | > 100 µM |  | > 100 µM |  | > 100 µM |  | > 100 µM |  | > 100 µM |  | > 100 µM |  | > 100 µM |  | > 100 µM |  | > 100 µM |
| CCN(CC)CCN1C(=O)c2cccc3cc(N)cc(c23)C1=O |  | 26.6 µM |  | > 100 µM |  | 37.1 µM |  | 48.3 µM |  | > 100 µM |  | 66.8 µM |  | > 100 µM |  | 34.1 µM |  | > 100 µM |  | 21.7 µM |
| CC1(C)N=C(N)N=C(N)N1c1cccc(CC(=O)Nc2ccccc2)c1 | 4.44 µM | > 100 µM | 11.5 µM | 73.2 µM | 15.4 µM | > 100 µM | 81.8 µM | > 100 µM | 12.7 µM | > 100 µM | > 100 µM | > 100 µM | > 100 µM | > 100 µM | > 100 µM | > 100 µM | 8.48 µM | > 100 µM | 24 µM | > 100 µM |
| C=C(C)[C@@H]1CC[C@]2(C(=O)OC)CC[C@]3(C)[C@H](CC[C@@H]4[C@@]5(C)CC/C(=N\OCCC(=NCCC#N)NOCCC#N)C(C)(C)[C@@H]5CC[C@]43C)[C@@H]12 | 3.02 µM | 10 µM | 30.2 µM | > 50 µM | 31.2 µM | > 50 µM | 12.3 µM | > 50 µM | 13.4 µM | > 50 µM | 15.6 µM | > 50 µM | 13.8 µM | > 50 µM | 5.64 µM | 16.6 µM | 14.9 µM | > 50 µM | 13.8 µM | > 50 µM |
| Nc1c2ccccc2nc2ccccc12 | 1.62 µM and 2.12 µM | 2.99 µM and 4.46 µM | 2.45 µM and 8.09 µM |  | 2.46 µM and 3.11 µM | 6 µM and 10.4 µM | 1.02 µM and 2.69 µM | 6.38 µM and 7.3 µM | 2.02 µM and 2.57 µM | 5.51 µM and 6.86 µM | 1.25 µM and 1.6 µM | 2.75 µM and 7.34 µM | 2.07 µM and 4.61 µM |  | 1.1 µM and 2.31 µM | 2.77 µM and 6.57 µM | 2.12 µM and 3.34 µM | 6.18 µM and 14 µM | 1.81 µM | 3.93 µM |
| CN(C)CCCn1c2c(c3ccc(N4CCNCC4)cc3c1=O)C(=O)c1ccccc1-2 | 0.698 µM | 2.2 µM | 1.44 µM | 4.38 µM | 0.947 µM | 2.55 µM | 0.343 µM | 1.88 µM | 0.329 µM | 1.65 µM | 0.765 µM | 2.56 µM | 1.33 µM | 4.41 µM | 1.29 µM | 2.9 µM | 0.844 µM | 3.73 µM | 0.352 µM | 1.71 µM |
| FC(F)(F)c1ccc(-c2cnc(-c3nn[nH]n3)nc2NC2CCCCCC2)cc1 | > 10 µM | > 10 µM | > 10 µM | > 10 µM | > 10 µM | > 10 µM | > 10 µM | > 10 µM | > 10 µM | > 10 µM | > 10 µM | > 10 µM | > 10 µM | > 10 µM | > 10 µM | > 10 µM | > 10 µM | > 10 µM | > 10 µM | > 10 µM |
